Measurements: patent US9181236B2, “2-spiro-substituted iminothiazines and their mono-and dioxides as bace inhibitors, compositions and their use” (Merck Sharp & Dohme Corp., priority 2011, dated 2015)

Key:
[1] = target: soluble human BACE1 catalytic domain (Homo sapiens (Human), UniProt P56817); test: BACE1 HTRF FRET Assay; format: biochemical; conditions: for Ki: Ki calculated from IC50 using the Cheng-Prusoff equation
[2] = target: purified human autoBACE-2 (Homo sapiens (Human), UniProt Q9Y5Z0); test: BACE-2 Assay (BACE-HTRF assay); format: biochemical; conditions: Ki calculated from IC50 using the Cheng-Prusoff equation; read-out: BACE2 Ki
Chain of purified human autoBACE-2 (Q9Y5Z0 63-473 limits assumed): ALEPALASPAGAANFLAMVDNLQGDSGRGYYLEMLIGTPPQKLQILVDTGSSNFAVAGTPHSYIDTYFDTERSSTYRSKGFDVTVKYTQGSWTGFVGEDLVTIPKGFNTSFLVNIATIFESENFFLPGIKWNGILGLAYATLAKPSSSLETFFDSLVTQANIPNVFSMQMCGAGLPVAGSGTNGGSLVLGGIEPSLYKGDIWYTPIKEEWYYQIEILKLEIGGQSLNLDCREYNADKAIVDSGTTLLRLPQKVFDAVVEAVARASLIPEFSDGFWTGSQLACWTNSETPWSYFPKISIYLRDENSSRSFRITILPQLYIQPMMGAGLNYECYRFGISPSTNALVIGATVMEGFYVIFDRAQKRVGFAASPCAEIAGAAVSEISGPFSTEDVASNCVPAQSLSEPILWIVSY
Procedure: Inhibitor IC50s at purified human autoBACE-2 are determined in a time-resolved endpoint proteolysis assay that measures hydrolysis of the QSY7-[…]-Eu-amide FRET peptide substrate (BACE-HTRF assay). […] DMSO is present at 5% final concentration in the assay. Following laser excitation of sample wells at 320 nm, the fluorescence signal at 620 nm is collected for 400 ms following a 50 μs delay on a RUBYstar HTRF plate reader (BMG Labtechnologies). Raw RFU data is normalized to maximum (1.0 nM BACE/DMSO) and minimum (no enzyme/DMSO) RFU values. […] The Ki values are calculated from the IC50 using the Cheng-Prusoff equation.

Chain of soluble human BACE1 catalytic domain (P56817 75-416): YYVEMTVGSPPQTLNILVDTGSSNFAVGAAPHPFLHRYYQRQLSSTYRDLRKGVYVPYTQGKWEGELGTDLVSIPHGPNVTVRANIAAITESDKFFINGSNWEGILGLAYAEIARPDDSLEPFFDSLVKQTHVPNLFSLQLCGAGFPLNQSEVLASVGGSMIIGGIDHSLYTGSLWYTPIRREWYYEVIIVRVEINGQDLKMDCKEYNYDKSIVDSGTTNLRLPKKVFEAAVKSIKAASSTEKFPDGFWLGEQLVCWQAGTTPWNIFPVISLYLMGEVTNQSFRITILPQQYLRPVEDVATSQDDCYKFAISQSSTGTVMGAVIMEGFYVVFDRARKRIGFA

Ki [1] [nM] | Ki [2] [nM] | inhibition at 10 µM ([1]; read-out: BACE1 % Inh. at 10 μM) [%] | SMILES
296 | < 50 | – | C[C@@]1(c2sc(-c3ccnc(-c4ccoc4)c3)cc2Cl)CS(=O)(=O)[C@]2(CCOC2)C(=N)N1 [Example 62j]
– | 5110 | 45 | C[C@@]1(c2cc(N)ccc2F)CS(=O)(=O)[C@]2(CCOC2)C(=N)N1
6.3 | 0.9 | – | COc1cccc2cc(-c3cc(Cl)c([C@]4(C)CS(=O)(=O)[C@]5(CCOC5)C(=N)N4)s3)[nH]c12 [Example 62g]
48 | < 20 | – | C[C@@]1(c2sc(-c3cccc(C#N)c3)cc2Cl)CS(=O)(=O)C2(CCCCC2)C(=N)N1 [Example 45]
20.2 | 2 | – | COc1cccc2cc(-c3cc(Cl)c([C@]4(C)CS(=O)(=O)C5(CCCCC5)C(=N)N4)s3)[nH]c12 [Example 44]
88 | < 20 | – | CCc1cccc(NC(=O)c2cc(Cl)c([C@]3(C)CS(=O)(=O)C4(CC4)C(=N)N3)s2)n1 [Example 79]
3.4 | 1.9 | – | COc1ccc(C(=O)Nc2ccc(F)c([C@]3(C)CS(=O)(=O)C4(CC4)C(=N)N3)c2)nc1 [Example 5]
10.6 | < 20 | – | C[C@@]1(c2cc(NC(=O)c3ccc(C#N)cn3)ccc2F)CS(=O)(=O)C2(CCCCC2)C(=N)N1 [Example 28]
82 | < 20 | – | C[C@@]1(c2cc(NC(=O)c3cn4ccsc4n3)ccc2F)CS(=O)(=O)C2(CCCC2)C(=N)N1 [Example 20]
67.1 | < 20 | – | C[C@@]1(c2sc(-c3cncc(C#N)c3)cc2Cl)CS(=O)(=O)[C@]2(CCOC2)C(=N)N1 [Example 62f]
18.7 | 2.7 | – | C[C@@]1(c2cc(NC(=O)c3ccc(F)cn3)ccc2F)CS(=O)(=O)[C@@]2(CCOC2)C(=N)N1 [Example 63b]
